Experimental data from patent publication US6458194B1, “Azo dye compound having 1,2,4-triazole as the azo component” (Fuji Photo Film Co., Ltd., priority 1999, dated 2002).

Experiments:
Format in all cases: physicochemical
[1] = Color fastness against light, Xe lamp irradiation of recorded image; settings: Xe lamp 17,000 lux, 3 days; portion with initial reflection density 1.0
Text: Next, the thermal transfer image accepting materials after such recording were irradiated with a Xe lamp (17,000 lux) for 3 days to evaluate the color fastness. More specifically, a portion showing a status-A reflection density of 1.0 before the irradiation was again measured for the status-A reflection density after the irradiation, which was expressed in a residual rate (in percent) to the pre-irradiation reflection density.

[2] = Absorption characteristic in ethyl acetate
Text: FIG. 1 is a spectrum chart showing an absorption characteristic in ethyl acetate of Compound 9 of the present invention where optical density of the transmitted light through a cell having the light path length of 1 cm is 1.0. Wave lengths giving the maximum absorption (λmax) are 428 nm for Compound 9, 440 nm for Compound 18, 438 nm for Compound 31, 442 nm for Compound 32, 435 nm for Compound 33 and 434 nm for Compound 3.

[3] = Suitability in ink production (solubility of coating composition for dye donating layer)
Text: Suitability in Ink Production:
∘ coating composition for the thermal transfer dye donating layer has a good solubility;
Δ time-consuming heating is necessary to dissolve the coating composition for the thermal transfer dye donating layer; and
X incomplete solubilization of the coating composition for the thermal transfer dye donating layer having a undissolved portion of the dye crystal.

Color Fastness (residual rate of status-A reflection density) [1] [%]	Wave length giving the maximum absorption (λmax) [2] [nm]	Suitability for ink production (in words) [3]	SMILES
90			CSc1nsc(N=Nc2c(-c3ccccc3)nn3nc(C(C)C)[nH]c23)n1 [Compound 7]
90			Cc1nn2nc(C(C)(C)C)c(N=Nc3nc(-c4ccccc4)ns3)c2[nH]1 [Compound 10]
92	428		CC(C)c1nn2nc(-c3ccccc3Cl)c(N=Nc3nc(-c4ccccc4)ns3)c2[nH]1 [Compound 9]
88			CCOc1nn2nc(C)[nH]c2c1N=Nc1nc(-c2ccc(C(F)(F)F)cc2)ns1 [Compound 11]
87			Cc1nn2nc(C(C)C)c(N=Nc3nc(-c4ccccc4)ns3)c2[nH]1 [Compound 21]

More lines, now with the values behind:

SMILES	Color Fastness (residual rate of status-A reflection density) [1] [%]	Wave length giving the maximum absorption (λmax) [2] [nm]	Suitability for ink production (in words) [3]
CCS(=O)(=O)c1nsc(N=Nc2c(-c3ccccc3Cl)nn3nc(C(C)C)[nH]c23)n1 [Compound 18]	91	440	
CSc1nsc(N=Nc2c(C(C)(C)C)nn3nc(C(C)CN4C(=O)C=CC4=O)[nH]c23)n1 (stereo not drawn) [Compound 25]	90		
CSc1nsc(N=Nc2c(C(C)(C)C)nn3nc(C(C)C)[nH]c23)n1 [Compound 4]	90		
CCSc1nsc(N=Nc2c(C)nn3nc(C)[nH]c23)n1 [Compound 3]		434	
CCSc1nsc(N=Nc2c(C)nn3c(C(C)(C)C)n[nH]c23)n1 [Comparative Compound “a”, reference compound]	89		inferior
CCSc1nsc(N=Nc2c(C(C)(C)C)nn3nc(C(C)C)[nH]c23)n1 [Compound 31]	90	438	
CSc1nsc(N=Nc2c(C(C)(C)C)nn3nc(C(C)CN4C(=O)c5ccccc5C4=O)[nH]c23)n1 (stereo not drawn) [Compound 15]	89		
CCS(=O)(=O)c1nsc(N=Nc2c(C(C)(C)C)nn3nc(C(C)C)[nH]c23)n1 [Compound 32]	93	442	
CCSc1nsc(/N=N/c2c(-c3ccccc3Cl)nn3nc(C(C)C)[nH]c23)n1 [Compound 34]	91		
COc1ccc(-c2nsc(N=Nc3c(C(C)(C)C)nn4nc(C(C)C)[nH]c34)n2)cc1 [Compound 20]	88		
CCCc1nn2nc(C(C)(C)C)c(N=Nc3nc(SC)ns3)c2[nH]1 [Compound 5]	91		
